Experimental data from patent publication US20250345383A1, “INTRANASAL ADMINISTRATION OF POLYSULFIDE” (The General Hospital Corporation, priority 2022, published 2025).

Assays:
[1] = test system: murine primary cortical neurons; assay: Cell viability of murine primary cortical neurons incubated with MPP+ (crystal violet assay); format: cell-based, mouse; conditions: MPP+ 50 μM, 24 hours
Procedure: Cell viability assays was performed to examine cell viabilities of SH-SY5Y cells or murine primary cortical neurons 24 h after the addition of MPP^+ (5 mM for SH-SY5Y, 50 μM for primary cortical neurons) with vehicle (PBS), Na2S (Sigma-Aldrich), Na2S3 (Dojindo Molecular Technologies, Inc), GSSSG (Glutathione trisulfide, Kyowa Hakko Bio Co., Ltd., Tokyo, Japan), LA (α-Lipoic acid, Sigma-Aldrich) or LASSS (α-Lipoic acid trisulfide, Kyowa Hakko Bio Co., Ltd., Tokyo, Japan). Cell viability was measured using the crystal violet assay.

[2] = test system: MPTP-treated mice; assay: MPTP-induced Parkinson's disease model in mice (tyrosine hydroxylase immunoblot); format: in vivo, mouse; conditions: GSSSG 50 mg/kg intranasal on day 0 and every 12 hours days 1-6; harvested 7 days after MPTP
Procedure: Intermittent H2S Inhalation—Sulfide Pre-Conditioning (SPC) We previously reported that breathing H2S at 80 ppm markedly increases plasma and brain levels of H2S and thiosulfate, an oxidative product of H2S.^50,51 Male C57BL6/J mice breathed air alone and air mixed with 80 ppm H2S (Airgas Inc., Radnor, PA) for 4 h each day for 5 consecutive days in custom-made plastic chambers. The H2S breathing session was performed from 8 AM until 12 PM from Day 1 through Day 5 as previously described^51 (FIG. 1). H2S concentration, as well as FiO2, was continuously measured using a portable gas monitor (VENTIS MX4 Multi-Gas Monitor, Industrial Scientific Corporation, Oakdale. PA).
Male C57BL6/J and CD-1 mice received four intraperitoneal injections of MPTP (20 mg/kg) or saline every 2 h for a total of four doses of MPTP (total, 80 mg/kg) or equivalent amount of saline, as previously described 3. […] Then, tyrosine hydroxylase protein levels were detected by immunoblotting.
To determine the effects of polysulfide on the loss of tyrosine hydroxylase in the substantia nigra and striatum in mice treated with MPTP, we administered GSSSG (50 mg/kg) or saline via intranasal route immediately after the first and the third injection of MPTP on Day 0. […] Then, tyrosine hydroxylase protein levels were detected by immunoblotting.

[3] = test system: ventral horn of lumbar spinal cord; assay: Histology of lumbar spinal cord 48 hours after SCI (Nissl, Iba-1, cleaved caspase-3); format: in vivo, mouse
Procedure: The lumbar enlargement of the spinal cord was removed 48 hours after surgery and sectioned to […] thickness using a cryotome (CM1850UV; Leica Biosystems, Heidelberger, Germany). Nissl staining was conducted using the Nissl stain kit (VitroVivo Biotech, Rockville, MD, USA) according to the protocol recommended by the manufacturer. Immunohistochemical staining for ionized calcium-binding adaptor molecule 1 (Iba-1) and cleaved caspase-3 was performed as previously described^6,15. The stained sections were examined using an epifluorescence microscope (Nikon Eclipse 80i; Nikon Instruments, Inc., Melville, NY, USA).
The number of stained cells was counted in one field (0.26 mm^2) under high magnification (200×) in 3 different sections of spinal cord from each mouse by an investigator who was blinded to the identity of the samples. The average number of stained cells was calculated for each mouse. For quantitative analysis of Iba-1 staining, the Iba-1-positive area per one field (0.26 mm^2) under high magnification (200×) in 3 different ventral horn sections for each mouse was calculated using the ImageJ image-processing program (National Institutes of Health, Bethesda, MD, USA). The mean area of Iba-1 staining in the spinal cords of mice in the sham procedure group was set to 1 and the relative amount of Iba-1 staining was determined for each experimental group of mice. Each group included 5 mice.

[4] = LC-MS/MS of ^34S-labeled GSSSG and sulfane sulfur species in CNS and plasma after intranasal GS^34SSG; format: in vivo, mouse; conditions: after intranasal administration
Procedure: We used LC-MS/MS analysis to measure the amount of ^34S-labeled GSSSG ([^32S2, ^34S]GSSSG) in the CNS and plasma after intranasal administration of GS^34SSG, an isotope of endogenous GSSSG^9,35,36. The ratios of ^34S-labeled sulfane sulfur species ([^32S, ^34S]GSSH, [^32S, ^34S]cysteine hydropersulfide (CysSSH), and [^32S2, ^34S]cysteine trisulfide (CysSSSCys)) to endogenous sulfane sulfur species ([^32S2]GSSH, [^32S2]CysSSH, and […]) were also quantitatively evaluated. At 30 minutes after intranasal administration of 50 mg/kg of GS^34SSG, blood was obtained and four different central nervous tissues were harvested: olfactory bulb and forebrain; brainstem; cervical and thoracic spinal cord, and lumbar spinal cord. A total of 30 mg of each tissue was homogenized in 300 μl of ice-cold methanol solution containing 5 mM β-(4-hydroxyphenyl)ethyl iodoacetamide (HPE-IAM; Santa Cruz Biotechnology, Dallas, TX, USA). Twenty-five μl of plasma was mixed with 75 μl of ice-cold methanol solution containing 5 mM HPE-IAM. Samples were incubated for 20 minutes at 37° C. in the dark. After centrifugation (14,000×g for tissues, 1,870×g for plasma, 10 minutes, 4° C.), the supernatant was separated and diluted with 0.1% formic acid for LC-MS/MS analysis, and the pellet was sonicated to measure the protein concentration by BCA assay. The amount of [^32S2, ^34S]GSSSG was quantified in selective reaction monitoring (SRM) with precursor ion (647.14 m/z), product ion (389.1 m/z), and higher energy collisional dissociation (21 v). The ratios of [^32S, ^34S]GSSH to [^32S2]GSSH, [^32S, ^34S]CysSSH to [^32S2]CysSSH, and [^32S2, ^34S]CysSSSCys to [^32S3]CysSSSCys were calculated from their peak area measured by Dionex UltiMate 3000 RS UPLC-Orbitrap Exploris 480 mass spectrometer (Thermo Fisher Scientific, Waltham, MA, USA). In brief, samples were subjected to the UPLC system with a Hypersil Gold C-18 (100×2.1 mm, 3.0 μm, Thermo Fisher Scientific, Waltham, MA, USA) column and were then eluted by a linear methanol gradient of the mobile phase (0-90%, 15 minutes) in the presence of 0.1% formic acid at a flow rate of 0.2 ml/minute at 40° C. The raw data were analyzed by Compound Discoverer 3.3 software (Thermo Fisher Scientific, Waltham, MA, USA). The molecular weights of these sulfane sulfur species combined with HPE-IAM were determined based on previous reports^9,11,37.

## N[C@@H](CCC(=O)N[C@@H](CSSSC[C@H](NC(=O)CC[C@H](N)C(=O)O)C(=O)NCC(=O)O)C(=O)NCC(=O)O)C(=O)O [GSSSG, glutathione trisulfide]
[1]
  protection of murine primary cortical neurons from the effects of MPP+ treatment: protected
[2]
  tyrosine hydroxylase in the nigrostriatal region: prevented the MPTP-induced decrease in tyrosine hydroxylase
[3]; intranasal GSSSG
  number of cleaved caspase-3-positive neurons in lumbar spinal cord: prevented the SCI-induced increase
[3]; intranasal GSSSG at 0, 8, 23, 32 hours, vs vehicle alone
  number of viable neurons (Nissl stain) in ventral horns of lumbar spinal cord: significant increase in the number of viable neurons
[3]; intranasal GSSSG, vs vehicle alone
  Iba-1-positive staining (microglial activation) in lumbar spinal cord: significant reduction in staining for Iba-1
[4]
  increase of levels of multiple sulfane sulfur species in the lumbar spinal cord: 10 to 100 fold
